*1 amine or outer side, *2 acyl side, *3 side chain or, on linkers, in order; H or OH if unused. Where a SMILES comes first, the peptide text is derived from it. The star is where a group is joined. X1 = O=C(CCCC[C@@H]1SC[C@@H]2NC(=O)N[C@@H]21)NCCCOCCOCCOCCCN*; Suc = O=C(CCC(=O)[*:2])[*:1]
Tests used:
MAST2 PDZ 1 = target: T1, MAST2 PDZ 1 (Homo sapiens, UniProt Q6P0Q8); assay: Holdup assay, MAST2-1; assay type: binding; settings: for BI: MAST2-1
T1 construct: made in house; host or cells: E. coli
T1 sequence (Q6P0Q8 1104-1192 limits assumed): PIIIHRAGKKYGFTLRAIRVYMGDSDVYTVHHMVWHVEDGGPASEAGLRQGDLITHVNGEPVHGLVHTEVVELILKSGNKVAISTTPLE
Experimental: (§1) The holdup assay was performed on a Tecan freedom Evo200 robot with 384-well plates in singlicate for the three 11-mer PTEN variants and the 13-mer PTEN peptide as described in [31, 32]. Briefly, prior to interaction assay, 2.5 μL of streptavidin resin was saturated in each well with 20 μL of biotinylated PBM peptides (42 μM) and then washed twice with an excess of free biotin, while the reference resin was incubated only with biotin. Right before the holdup experiment, the PDZ library was spiked with an internal standard of lysozyme. Then, the biotin- or PBM-saturated resin was incubated, each in a distinct well of a 384-well plate, with complete cell lysates diluted so that the concentration of the tag-PDZ present in the crude extract is adjusted at 4 μM. After a sufficient time to reach complex equilibrium (15 min.), a fast and mild filtration step is performed and the tag-PDZ concentrations were measured by capillary electrophoresis instrument (LabChip GXII, PerkinElmer, Massachusets, USA). Standard markers were used to convert migration time into molecular weight on the LabChip software and inappropriate molecular weight markers were corrected or excluded.
(§2) For filtered data, the BI was extracted with the following equation (Eq 1) that estimates the depleted fraction after superimposition of the sample and reference electropherograms: BI=Iref−Ilig/Iref (1) where Iref and Ilig are the intensities of the tag-PDZ peaks measured, for each PDZ domain/PBM peptide interaction pair, in the biotin reference and the PBM electropherograms, respectively.
(§3) BIs were transformed into dissociation constants (KD) using the following formula: KD=([PDZtot]−BI·[PDZtot])·([PBMtot]−BI·[PDZtot])/BI·[PDZtot] (2) where [PDZtot] and [PBMtot] correspond to the total concentrations of the PDZ domain (usually around 4 μM) and the PBM peptide used during the assay. Since the PBMtot concentration in the resin during the holdup assay parameter may differ from one peptide to another and remains unknown, it is impossible to directly convert BI values into KD constants. We systematically determined the KD constants for a subset of PDZ/PBM pairs by competitive FP. […] For each PBM, the average peptide concentration was calculated after outlier rejection based on the absolute distances from the median as compared to three times the standard deviation (3σ rule), with never more than 2 values rejected.

SNX27 PDZ 1 = target: T2, SNX27 PDZ 1 (Homo sapiens, UniProt Q96L92); assay: Holdup assay, SNX27-1; assay type: binding; settings: for BI: PDZ domain SNX27-1
T2 construct: made in house; host or cells: E. coli
Experimental: as §1, §2, §3

ARHGAP23-1 = assay: Holdup assay, ARHGAP23-1; assay type: binding, human
ARHGEF12-1 = target: T3, ARHGEF12-1 (Homo sapiens, UniProt Q9NZN5); assay: Holdup assay, ARHGEF12-1; assay type: binding
T3 sequence (Q9NZN5 72-151): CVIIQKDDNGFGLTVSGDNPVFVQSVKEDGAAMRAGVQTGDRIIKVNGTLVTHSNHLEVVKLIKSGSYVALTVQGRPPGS

CARD11-1 = assay: Holdup assay, CARD11-1; assay type: binding, human
DLG1-1 = DLG1-1 (Homo sapiens, UniProt Q12959); assay: Holdup assay, DLG1-1; assay type: binding; settings: for BI: DLG1-1
DLG2-1 = DLG2-1 (Homo sapiens, UniProt Q15700); assay: Holdup assay, DLG2-1; assay type: binding; settings: for BI: DLG2-1
DLG2-2 = DLG2-2 (Homo sapiens, UniProt Q15700); assay: Holdup assay, DLG2-2; assay type: binding
DLG5-1 = assay: Holdup assay, DLG5-1; assay type: binding, human
DLG5-2 = assay: Holdup assay, DLG5-2; assay type: binding, human
DVL1-1 = assay: Holdup assay, DVL1-1; assay type: binding, human
DVL2-1 = assay: Holdup assay, DVL2-1; assay type: binding, human
GIPC1-1 = assay: Holdup assay, GIPC1-1; assay type: binding, human
HTRA2-1 = assay: Holdup assay, HTRA2-1; assay type: binding, human
HTRA4-1 = assay: Holdup assay, HTRA4-1; assay type: binding, human
IL16-3 = assay: Holdup assay, IL16-3; assay type: binding, human
INADL-5 = assay: Holdup assay, INADL-5; assay type: binding, human
LDB3-1 = assay: Holdup assay, LDB3-1; assay type: binding, human
LIN7B-1 = assay: Holdup assay, LIN7B-1; assay type: binding, human
LNX2-2 = target: T4, LNX2-2 (Homo sapiens, UniProt Q8N448); assay: Holdup assay, LNX2-2; assay type: binding
T4 sequence (Q8N448 339-422): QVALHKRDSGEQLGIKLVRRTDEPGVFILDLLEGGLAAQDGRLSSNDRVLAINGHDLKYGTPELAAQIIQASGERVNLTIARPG

LNX2-4 = assay: Holdup assay, LNX2-4; assay type: binding, human
MAGI2-1 = assay: Holdup assay, MAGI2-1; assay type: binding, human
MAGI3-4 = assay: Holdup assay, MAGI3-4; assay type: binding, human
MAGIX-1 = assay: Holdup assay, MAGIX-1; assay type: binding, human
MPDZ-1 = assay: Holdup assay, MPDZ-1; assay type: binding, human
LNX1-3 = assay: Holdup assay, LNX1-3; assay type: binding, human

CC[C@H](C)[C@H](NC(=O)[C@H](CCC(N)=O)NC(=O)[C@@H](NC(=O)[C@H](Cc1c[nH]cn1)NC(=O)[C@H](CCC(N)=O)NC(=O)[C@H](CC(=O)O)NC(=O)[C@H](CCC(=O)O)NC(=O)[C@H](CC(=O)O)NC(=O)CCC(=O)NCCCOCCOCCOCCCNC(=O)CCCC[C@@H]1SC[C@@H]2NC(=O)N[C@@H]21)[C@@H](C)O)C(=O)N[C@H](C(=O)N[C@@H](CCCNC(=N)N)C(=O)N[C@H](C(=O)O)C(C)C)[C@@H](C)O [PTEN_KR] ({X1-Suc}-DEDQHTQITRV-OH)
Kd (MAST2 PDZ 1): 6.66 µM
BI (MAST2 PDZ 1): 0.767
Kd (SNX27 PDZ 1): 8.32 µM
BI (SNX27 PDZ 1): 0.67
BI (ARHGAP23-1): -0.018
LogKD (ARHGAP23-1): 3.655
BI (ARHGEF12-1): 0.433
Kd (ARHGEF12-1): 30.5 µM
BI (CARD11-1): -0.097
LogKD (CARD11-1): 3.655
Kd (DLG1-1): 88.1 µM
BI (DLG1-1): 0.215
BI (DLG2-1): 0.191
BI (DLG2-2): 0.312
Kd (DLG2-2): 52.4 µM
BI (DLG5-1): -0.041
LogKD (DLG5-1): 3.655
BI (DLG5-2): -0.028
LogKD (DLG5-2): 3.655
BI (DVL1-1): -0.056
LogKD (DVL1-1): 3.655
BI (DVL2-1): -0.027
LogKD (DVL2-1): 3.655
BI (GIPC1-1): 0.02
LogKD (GIPC1-1): 3.655
BI (HTRA2-1): -0.042
LogKD (HTRA2-1): 3.655
BI (HTRA4-1): 0.004
LogKD (HTRA4-1): 3.655
BI (IL16-3): -0.005
LogKD (IL16-3): 3.655
BI (INADL-5): -0.046
LogKD (INADL-5): 3.655
BI (LDB3-1): -0.05
LogKD (LDB3-1): 3.655
BI (LIN7B-1): -0.078
LogKD (LIN7B-1): 3.655
BI (LNX2-2): 0.256
Kd (LNX2-2): 69.7 µM
BI (LNX2-4): -0.045
LogKD (LNX2-4): 3.655
BI (MAGI2-1): -0.074
LogKD (MAGI2-1): 3.655
BI (MAGI3-4): -0.011
LogKD (MAGI3-4): 3.655
BI (MAGIX-1): 0.018
LogKD (MAGIX-1): 3.655
BI (MPDZ-1): -0.039
LogKD (MPDZ-1): 3.655

CC[C@H](C)[C@H](NC(=O)[C@H](CCC(N)=O)NC(=O)[C@@H](NC(=O)[C@H](Cc1c[nH]cn1)NC(=O)[C@H](CCC(N)=O)NC(=O)[C@H](CC(=O)O)NC(=O)[C@H](CCC(=O)O)NC(=O)[C@H](CC(=O)O)NC(=O)CCC(=O)NCCCOCCOCCOCCCNC(=O)CCCC[C@@H]1SC[C@@H]2NC(=O)N[C@@H]21)[C@@H](C)O)C(=O)N[C@H](C(=O)N[C@@H](CCCCNC(C)=O)C(=O)N[C@H](C(=O)O)C(C)C)[C@@H](C)O [PTEN_Ac]
Kd (MAST2 PDZ 1): 4.07 µM
BI (MAST2 PDZ 1): 0.858
Kd (SNX27 PDZ 1): 4.03 µM
BI (SNX27 PDZ 1): 0.859
BI (ARHGAP23-1): -0.108
LogKD (ARHGAP23-1): 3.605
BI (ARHGEF12-1): 0.535
Kd (ARHGEF12-1): 22.5 µM
BI (CARD11-1): -0.116
LogKD (CARD11-1): 3.605
BI (DLG1-1): 0.168
Kd (DLG2-1): 102 µM
BI (DLG2-1): 0.211
BI (DLG2-2): 0.329
Kd (DLG2-2): 54.4 µM
BI (DLG5-1): -0.005
LogKD (DLG5-1): 3.605
BI (DLG5-2): 0.018
LogKD (DLG5-2): 3.605
BI (DVL1-1): -0.016
LogKD (DVL1-1): 3.605
BI (GIPC1-1): 0.035
LogKD (GIPC1-1): 3.605
BI (HTRA2-1): -0.074
LogKD (HTRA2-1): 3.605
BI (HTRA4-1): -0.059
LogKD (HTRA4-1): 3.605
BI (IL16-3): -0.166
LogKD (IL16-3): 3.605
BI (INADL-5): -0.076
LogKD (INADL-5): 3.605
BI (LDB3-1): -0.04
LogKD (LDB3-1): 3.605
BI (LIN7B-1): -0.004
LogKD (LIN7B-1): 3.605
BI (LNX1-3): 0.072
LogKD (LNX1-3): 3.605
BI (LNX2-2): 0.68
Kd (LNX2-2): 11.9 µM
BI (LNX2-4): 0.013
LogKD (LNX2-4): 3.605
BI (MAGI2-1): 0.014
LogKD (MAGI2-1): 3.605
BI (MAGI3-4): -0.101
LogKD (MAGI3-4): 3.605
BI (MAGIX-1): -0.034
LogKD (MAGIX-1): 3.605
BI (MPDZ-1): 0.074
LogKD (MPDZ-1): 3.605
